Where two headings read alike, the source gives them in different places.
Experiment: 1st phase clinical test: pharmacokinetics of petasin in serum after single oral administration of tablets containing butterbur extract (open crossover; enzyme immunoassay)
Format: in vivo, human (clinically healthy men)
Conditions: for AUCRest: single oral, mean ± SD; for Petasin serum concentration Mean / concentration at 0 h: 0 h p.a.; for concentration at 0 h / concentration at 0.25 h / concentration at 0.5 h / concentration at 0.75 h / concentration at 1 h / concentration at 1.17 h / concentration at 1.5 h / concentration at 1.833 h / concentration at 2.167 h / concentration at 2.5 h / concentration at 3 h / concentration at 4 h / concentration at 5 h / concentration at 6 h / concentration at 8 h / concentration at 12 h / concentration at 24 h: male, human, serum, oral; for concentration at 0.25 h: 0.25 h p.a.; for concentration at 0.5 h: 0.5 h p.a.; for concentration at 0.75 h: 0.75 h p.a.; for concentration at 1 h: 1 h p.a.; for concentration at 1.17 h: 1.17 h p.a.; for concentration at 1.5 h: 1.5 h p.a.; for concentration at 1.833 h: 1.833 h p.a.; for concentration at 2.167 h: 2.167 h p.a.; for concentration at 2.5 h: 2.5 h p.a.; for concentration at 4 h: 4 h p.a.; for concentration at 5 h: 5 h p.a.; for concentration at 6 h: 6 h p.a.; for concentration at 8 h: 8 h p.a.; for concentration at 12 h: 12 h p.a.; for concentration at 24 h: 24 h p.a.
Description: Petasin ovalbumin is adsorptively bound to polystyrene microtitration plates in a concentration of […] in 0.1 M carbonate buffer, pH=9.5, (100 μl/well) for 16 hours at 4° C. and thereupon sucked off. After washing it two times with 300 μl/well washing buffer (PBS, 0.1% Tween 20) it is blocked for 2 hours at room temperature with 150 μl/well blocking solution (0.6% gelatine, 0.02% […] in PBS) and subsequently washed three times with washing buffer.
50 μl of the serum sample to be tested or the respective standard (1:4 dilution in a sample buffer (PBS, 1% BSA, 0.1% Tween 20, 0.01% thiomersal) and 50 μL of an optimized anti-serum dilution in a sample buffer are simultaneously incubated with shaking for 1 hour at room temperature. Subsequently, the microtitration plate is washed three times with 300 μl/well of washing buffer and incubated for 30 min. at room temperature with 100 μl of anti-rabbit immunoglobulin peroxidase conjugate, diluted in sample buffer, and once more washed as above. Thereupon, it is incubated for 10 min. with 100 μl of a substrate solution ready for use (3.3′, 5.5′-tetramethyl benzidine) per well and the reaction is stopped by adding 100 μl/well of 0.5 M sulfuric acid. The evaluation is carried out at 450 nm in a microtitration plate reader.
In a 1st phase of the clinical test for determining the pharmacokinetic parameters of tablets containing butterbur extract was a single oral administrations of 2 or 4 tablets to 24 clinically healthy men at the age between 18 and 40 years.
The open, crossover test was chosen as method, single administration of each dose in a randomized order with an interval of at least 7 days between the administrations.
Model-independent pharmacokinetic parameters for petasin Statistical methods:
ANOVA, ANOVAlog, Wilcoxon-Mann-Whitney test, Wilcoxon-sign order test

[1] = 2 tablets, after administering 2 tablets, read-out: Petasin serum concentration Max.
[2] = 2 tablets, after administering 2 tablets, read-out: Petasin serum concentration Mean
[3] = 2 tablets, after administering 2 tablets, read-out: Petasin serum concentration Min.
[4] = 2 tablets, after administering 2 tablets, read-out: Petasin serum concentration Median

AUCRest (2 tablets): 18.3 ± 7.9% | Dose dependence of Cmax and AUC (2 versus 4 tablets): nearly proportional to the dose | Medium maximum petasin concentration (Cmax) after double the dose (4 tablets versus 2 tablets): nearly doubled | Medium time of reaching the maximum serum level (tmax) after double the dose (4 tablets versus 2 tablets): remains constant | AUCRest (4 tablets): 10.8 ± 4.9% | Petasin serum concentration Mean (after administering 4 tablets): <1 ng/mL | Petasin serum concentration Mean (after administering 4 tablets, listed as Petasin): 0.0 ng/mL | Petasin serum concentration Max. (after administering 4 tablets, 3 h p.a.): 49.0 ng/mL | concentration at 0 h [1]: 0 ng/mL | concentration at 0 h [2]: 0 ng/mL | concentration at 0 h [3]: 0 ng/mL | concentration at 0.25 h [1]: 5.5 ng/mL | concentration at 0.25 h [2]: 2.8 ng/mL | concentration at 0.25 h [4]: 2.2 ng/mL | concentration at 0.25 h [3]: 1.1 ng/mL | concentration at 0.5 h [1]: 23.3 ng/mL | concentration at 0.5 h [2]: 7.6 ng/mL | concentration at 0.5 h [4]: 5.9 ng/mL | concentration at 0.5 h [3]: 1.5 ng/mL | concentration at 0.75 h [1]: 23.8 ng/mL | concentration at 0.75 h [2]: 11.9 ng/mL | concentration at 0.75 h [4]: 11 ng/mL | concentration at 0.75 h [3]: 4 ng/mL | concentration at 1 h [1]: 29.3 ng/mL | concentration at 1 h [2]: 15.6 ng/mL | concentration at 1 h [4]: 14.7 ng/mL | concentration at 1 h [3]: 4 ng/mL | concentration at 1.17 h [1]: 62.9 ng/mL | concentration at 1.17 h [2]: 21 ng/mL | concentration at 1.17 h [4]: 15.3 ng/mL | concentration at 1.17 h [3]: 5.6 ng/mL | concentration at 1.5 h [1]: 47.3 ng/mL | concentration at 1.5 h [2]: 19.3 ng/mL | concentration at 1.5 h [4]: 16.1 ng/mL | concentration at 1.5 h [3]: 5.1 ng/mL | concentration at 1.833 h [1]: 44.3 ng/mL | concentration at 1.833 h [2]: 18.2 ng/mL | concentration at 1.833 h [4]: 14.7 ng/mL | concentration at 1.833 h [3]: 7.8 ng/mL | concentration at 2.167 h [1]: 31.7 ng/mL | concentration at 2.167 h [2]: 16.3 ng/mL | concentration at 2.167 h [4]: 14.5 ng/mL | concentration at 2.167 h [3]: 7.3 ng/mL | concentration at 2.5 h [1]: 26.6 ng/mL | concentration at 2.5 h [2]: 13.6 ng/mL | concentration at 2.5 h [4]: 10.2 ng/mL | concentration at 2.5 h [3]: 5.9 ng/mL | concentration at 3 h (2 tablets, after administering 2 tablets, 3 h p.a., read-out: Petasin serum concentration Max.): 18.3 ng/mL | concentration at 3 h (2 tablets, after administering 2 tablets, 3 h p.a., read-out: Petasin serum concentration Mean): 8.8 ng/mL | concentration at 3 h (2 tablets, after administering 2 tablets, 3 h p.a., read-out: Petasin serum concentration Median): 7.7 ng/mL | concentration at 3 h (2 tablets, after administering 2 tablets, 3 h p.a., read-out: Petasin serum concentration Min.): 3.1 ng/mL | concentration at 4 h [1]: 11.2 ng/mL | concentration at 4 h [2]: 4.5 ng/mL | concentration at 4 h [4]: 5.2 ng/mL | concentration at 4 h [3]: 1.7 ng/mL | concentration at 5 h [1]: 8.8 ng/mL | concentration at 5 h [2]: 4.1 ng/mL | concentration at 5 h [4]: 3.4 ng/mL | concentration at 5 h [3]: 1.5 ng/mL | concentration at 6 h [1]: 8.1 ng/mL | concentration at 6 h [2]: 3.2 ng/mL | concentration at 6 h [4]: 3.1 ng/mL | concentration at 6 h [3]: 1.2 ng/mL | concentration at 8 h [1]: 4.2 ng/mL | concentration at 8 h [2]: 1.9 ng/mL | concentration at 8 h [4]: 1.6 ng/mL | concentration at 8 h [3]: 1 ng/mL | concentration at 12 h [1]: 2.9 ng/mL | concentration at 12 h [2]: 1.6 ng/mL | concentration at 12 h [4]: 1.4 ng/mL | concentration at 12 h [3]: 1.1 ng/mL | concentration at 24 h [1]: 2.3 ng/mL | concentration at 24 h [2]: 1.5 ng/mL | concentration at 24 h [4]: 1.3 ng/mL | concentration at 24 h [3]: 1.1 ng/mL | concentration at 0 h (4 tablets, after administering 4 tablets, read-out: Petasin serum concentration Max.): 0 ng/mL | concentration at 0 h (4 tablets, after administering 4 tablets, read-out: Petasin serum concentration Median): < 1 ng/mL
SMILES: C=C(C)C1CC2(C)C(=CC1=O)CCC(OC(=O)/C(C)=C\C)C2C (centres unmarked) [petasin]

From US20050042701A1, “Anti-petasin antibodies, methods for the production thereof and their use” (priority 1998, published 2005)
